Assay [1] deals with heat shock protein 90 (Hsp90). As to conditions: general statement, no test described; cited from earlier work.
The target of a further assay is T1, Rdc2 halogenase (Metacordyceps chlamydosporia, UniProt B3FWT7, INS404VIQGSGSS/INS87YTDFIA/S88A).
T1 construct: 2 was concentrated and exchanged into Buffer A; His6 (N); made in house; host or cells: Escherichia coli BL21-CodonPlus (DE3)-RIL
Type of assay: biochemical, P. chlamydosporia. Conditions: three independent experiments. The method, then:
Kinetic analysis of two chlorination steps of dihydroresorcylide (compound 3) by an Rdc2 halogenase of the present disclosure was carried out. Dihydroresorcylide (compound 3) was chosen as the substrate to study the kinetics of the Rdc2 halogenase. To measure the ka, and Km for the C-11 chlorination, a series of 100-μL reaction systems were set up containing 100 μM FAD, 10 mM NADH, 10 mM NaCl, 16 μM Fre, and 16 μM Rdc2 halogenase in 100 mM phosphate buffer (pH 7.0) with varying amount of compound 3 (0.17 to 1.71 mM) in each tube. All the reaction components and Fre were mixed thoroughly and maintained at 28° C. for 2 min. Rdc2 was then added to initiate the reaction. After 30 minutes, the reactions were quenched with 200 μL of MeOH, briefly vortexed, and centrifuged at 15,000 rpm for 5 minutes. Product formation was quantified on the HPLC at 315 nm based on the area of the peaks and standard curve of compound 3a. Reactions were run in triplicate and the steady-state parameters kcat and Km were determined by nonlinear fitting of Michaelis-Menten equation.
For the second halogenations step, C-13 chlorination, the same method was used to determine kcat and Km except that 11-chlorodihydroresorcylide (compound 3a) was used as the substrate (0.03-0.18 mM).

The mark [2] stands for this setting: C-13 halogenation (chlorination), compound 3a as substrate.

Read-outs that look alike come from different tables or passages of the source.

T1 sequence (B3FWT7 other isoform, or with tags, fused parts or gaps INS87YTDFIA/S88A/INS404VIQGSGSS): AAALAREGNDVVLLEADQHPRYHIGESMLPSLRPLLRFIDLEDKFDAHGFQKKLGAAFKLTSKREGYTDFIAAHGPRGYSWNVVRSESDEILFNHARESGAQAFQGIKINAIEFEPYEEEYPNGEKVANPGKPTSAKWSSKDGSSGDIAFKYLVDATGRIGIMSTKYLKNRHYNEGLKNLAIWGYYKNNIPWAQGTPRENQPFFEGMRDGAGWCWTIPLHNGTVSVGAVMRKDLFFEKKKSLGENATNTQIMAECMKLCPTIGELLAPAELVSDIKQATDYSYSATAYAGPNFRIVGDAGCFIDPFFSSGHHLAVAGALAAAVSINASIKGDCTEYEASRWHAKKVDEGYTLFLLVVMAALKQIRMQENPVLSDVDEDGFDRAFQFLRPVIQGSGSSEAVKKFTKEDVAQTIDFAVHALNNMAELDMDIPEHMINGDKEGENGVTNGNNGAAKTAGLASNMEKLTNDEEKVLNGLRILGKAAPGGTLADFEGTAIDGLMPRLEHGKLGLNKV

Regarding `C[C@@H]1C[C@H]2O[C@@H]2/C=C\C=C\C(=O)Cc2cc(O)cc(O)c2C(=O)O1` [Compound 1, monocillin I], in assay [1], the Hsp90 inhibition result is on record as “potent”.

For `C[C@@H]1C[C@H]2O[C@@H]2/C=C\C=C\C(=O)Cc2c(Cl)c(O)cc(O)c2C(=O)O1` [Compound 1a, radicicol], the Hsp90 inhibition entry in assay [1] is “potent”.

As for `C[C@H]1CCCCCC(=O)Cc2cc(O)cc(O)c2C(=O)O1` [Compound 3, dihydroresorcylide], the Km at Rdc2 halogenase (C-11 halogenation (chlorination), compound 3 as substrate, 16 μM Fre, 16 μM Rdc2, pH 7.0, 28° C., 30 minutes) amounted to 281 ± 20 µM. Moreover, the kcat at Rdc2 halogenase (C-11 halogenation (chlorination), compound 3 as substrate) came to 0.0137 ± 0.000667 s⁻¹.

Turning to `CC1CCCC(=O)CCCc2c(Cl)c(O)cc(O)c2C(=O)O1` (stereo not drawn) [Compound 3a, 11-chlorodihydroresorcylide], at Rdc2 halogenase (setting [2]), the Km was 846 ± 26 µM and the kcat came to 0.0016 ± 6.7e-05 s⁻¹.

Values taken from US20130244296A1, “HALOGENATION ENZYMES” (priority 2011, published 2013).
